{"source": "patent US4335211A", "about": "“Process for producing optically active cephalosporin analogs” (Kyowa Hakko Kogyo Co., Ltd., priority 1979, dated 1982)", "experiment": "antimicrobial activity (statement in words)", "format": "cell-based", "conditions": "less polar isomer (A) versus more polar isomer (B)"}
{"smiles": "N[C@@H](C(=O)N[C@@H]1C(=O)N2C(C(=O)O)=C(Cl)CC[C@H]12)c1ccccc1", "note": "[Example 1, (6R, 7S) 7-(R)-phenylglycinamido-3-chloro-1-azabicyclo[4,2,0]oct-2-en-8-on-2-carboxylic acid]", "values": [{"measurement": "antimicrobial activity", "result": "greater antimicrobial activity"}]}
